Data: publication PMC10532587, “An Investigation of Structure–Activity Relationships and Cell Death Mechanisms of the Marine Alkaloids Discorhabdins in Merkel Cell Carcinoma Cells” (Marine Drugs, 2023)
Read-outs that look alike come from different tables or passages of the source.

Assays:
MCC26 = experiment: Cell survival by CellTiterGlo, VN-MCC line MCC26; format: cell-based; conditions: for IC50: CellTiterGlo, normalized to DMSO; for AUC (arbitrary units) MCC26: area under the dose-response curve
MCC cells [1] = experiment: Cellular reducing potential (RealTime-Glo MT Cell Viability); format: cell-based; conditions: 10 µM; normalized to DMSO control
Procedure: (§1) Cells were treated with the indicated discorhabdins (10 µM) and assessed for mitochondrial membrane potential (MMP) using JC-10 ratiometric dye. JC-10 was added for the last hour of incubation. Cellular reducing potential was assessed using a RealTimeGlo MT Cell Viability kit, and cellular ATP levels using CellTiterGlo. All values were normalized to DMSO control. Error bars (n = 3–4) represent sd. See Figures S45 and S46 for additional cell line/discorhabdin combinations, concentrations, and time points for reducing potential and MMP, respectively.
(§2) Three methods were employed for assessment of MCC and control cell survival/viability after discorhabdin treatment, two metabolic assays and a cell permeability assay. For all three methods, cells were plated in 384-well plates at 2500 cells/well and treated with various concentrations of discorhabdins for various time periods. […] Continuous monitoring of metabolic activity was accomplished using a cellular reducing potential luminescence assay, the RealTime-Glo^TM MT Cell Viability Assay (Promega, Madison, WI, USA) according to manufacturer’s instructions. Loss of cell plasma membrane integrity was assessed using a cell-impermeant molecule that becomes fluorescent upon binding DNA [82] in parallel with apoptosis detection per manufacturer’s instructions (RealTimeGlo^TM Annexin V Apoptosis and Necrosis Assay-Promega). […]

MKL-1 = experiment: Cell survival by CellTiterGlo, VP-MCC line MKL-1; format: cell-based; conditions: VP-MCC; for IC50: MKL-1, CellTiterGlo, normalized to DMSO, read-out: IC50 (nM) MKL-1; for AUC (arbitrary units) MKL-1: area under the dose-response curve
caspase-3/7 [2] = experiment: Caspase-3/7 activation (CaspaseGlo 3/7) in MKL-1 cells; format: cell-based; conditions: 8 or 24 h; normalized to DMSO control
Procedure: (§3) (a) Caspase activation. Cells were treated for 8 or 24 h with indicated discorhabdins or bortezomib. Caspase-3/7 activity was determined (Promega CaspaseGLO-3/7) and normalized to untreated (DMSO) control cells. Error bars represent sd (n = 4). (b). Apoptosis/necrosis. Cells were treated for up to 24 h with the indicated discorhabdins and assessed for Annexin binding and cell permeability using the Promega RealTime-Glo™ Annexin V Apoptosis and Necrosis Assay kit. Luminescence indicates Annexin binding, fluorescence indicates membrane permeability.
(§4) Three methods were employed for assessment of MCC and control cell survival/viability after discorhabdin treatment, two metabolic assays and a cell permeability assay. For all three methods, cells were plated in 384-well plates at 2500 cells/well and treated with various concentrations of discorhabdins for various time periods. CellTiterGlo^TM (Promega, Madison, WI, USA) measures cellular ATP content and was used to estimate potency of discorhabdins in cell viability assays as previously described. Continuous monitoring of metabolic activity was accomplished using a cellular reducing potential luminescence assay, the RealTime-Glo^TM MT Cell Viability Assay (Promega, Madison, WI, USA) according to manufacturer’s instructions. Loss of cell plasma membrane integrity was assessed using a cell-impermeant molecule that becomes fluorescent upon binding DNA [82] in parallel with apoptosis detection per manufacturer’s instructions (RealTimeGlo^TM Annexin V Apoptosis and Necrosis Assay-Promega). Two additional assays of apoptotic cell death were also used. Caspase activation in response to treatment of MCC cells by discorhabdins or bortezomib (as a positive control) was measured using the CaspaseGlo® 3/7 Assay (Promega, Madison, WI, USA) according to the manufacturer’s instructions at multiple time points. […]

[3] = tested on: control (HaCaT) and Merkel cell carcinoma cell lines; experiment: Cell survival by CellTiterGlo, all seven cell lines; format: cell-based; conditions: MCC and control cell lines
Procedure: (§5) Three methods were employed for assessment of MCC and control cell survival/viability after discorhabdin treatment, two metabolic assays and a cell permeability assay. For all three methods, cells were plated in 384-well plates at 2500 cells/well and treated with various concentrations of discorhabdins for various time periods. CellTiterGlo^TM (Promega, Madison, WI, USA) measures cellular ATP content and was used to estimate potency of discorhabdins in cell viability assays as previously described. Continuous monitoring of metabolic activity was accomplished using a cellular reducing potential luminescence assay, the RealTime-Glo^TM MT Cell Viability Assay (Promega, Madison, WI, USA) according to manufacturer’s instructions. Loss of cell plasma membrane integrity was assessed using a cell-impermeant molecule that becomes fluorescent upon binding DNA [82] in parallel with apoptosis detection per manufacturer’s instructions (RealTimeGlo^TM Annexin V Apoptosis and Necrosis Assay-Promega). Two additional assays of apoptotic cell death were also used. Caspase activation in response to treatment of MCC cells by discorhabdins or bortezomib (as a positive control) was measured using the CaspaseGlo® 3/7 Assay (Promega, Madison, WI, USA) according to the manufacturer’s instructions at multiple time points. Inhibition of apoptotic cell death was investigated using pre-treatment of cells with for 1 h with the pan-caspase inhibitor Z-VAD-FMK (Enzo Life Sciences, Farmingdale, NY, USA) followed by treatment with discorhabdins or bortezomib and estimation of cell viability as outlined above.
(§6) In order to compare responses among all of the discorhabdins and cell lines (98 combinations), dose–response curves were generated using identical discorhabdin dilution series. GraphPad Prism 8 (San Diego, CA, USA) software was utilized to graph dose–response data and to calculate IC50 values and area under the dose–response curves (AUC) along with 95% confidence interval estimates using four-parameter logistic nonlinear regression analysis. For further analysis and comparisons, AUC for each cell line/discorhabdin pair was visualized in a heatmap generated in R version 1.3.1073 (R Core Team (2013). R: A language and environment for statistical computing. R Foundation for Statistical Computing, Vienna, Austria, http://www.R-project.org/ (accessed on 12 January 2023).
Figure S39: Activity of discorhabdins against M CC cell lines.
The indicated discorh abd ins were ass essed for th eir ability to affect surviv al of control (H aCaT) and Merkel cell carcino ma cell lines (VN-MCC: MCC13, MCC26, UISO and VP -MCC: MKL-1, MKL-2, Wag a). Cells were plat ed at 2500 cells/well and compounds the next day. Cell survival was estimated by CellTiterGlo (normalized to untreated (DMSO) cells on the same plate). Structures w ere o btained from the supplier and/or the PubChem database or as described in the text. Number in bold in ( ) refers to structures in Figure 1 in the text. Curves were plotted and IC50 values and 95% confidence interval calculated by GraphPad software. […]

HaCaT = experiment: Cell survival by CellTiterGlo, control cells; format: cell-based, human; conditions: for IC50: Homo sapiens, HaCaT; for AUC (arbitrary units) HaCaT: area under the dose-response curve, control cells
MCC cells [4] = experiment: Cellular ATP content (CellTiterGlo), time course; format: cell-based; conditions: 10 µM, normalized to DMSO control
Procedure: as §1, §2

Waga = experiment: Cell survival by CellTiterGlo, VP-MCC line Waga; format: cell-based; conditions: for IC50: CellTiterGlo, normalized to DMSO; for AUC (arbitrary units) WaGa: area under the dose-response curve
MKL-2 = experiment: Cell survival by CellTiterGlo, VP-MCC line MKL-2; format: cell-based; conditions: for IC50: CellTiterGlo, normalized to DMSO; for AUC (arbitrary units) MKL-2: area under the dose-response curve
UISO = experiment: Cell survival by CellTiterGlo, VN-MCC line UISO; format: cell-based; conditions: for IC50: CellTiterGlo, normalized to DMSO; for AUC (arbitrary units) UISO: area under the dose-response curve
UISO cells = experiment: Mitochondrial membrane potential (JC-10) in UISO cells; format: cell-based; conditions: 10 µM, normalized to DMSO control
Procedure: as §1
(§7) Mitochondrial membrane potential (MMP) was assessed using the JC-10 ratiometric dye (Sigma, St. Louis, MO, USA). UISO or MKL-1 cells were treated in black-walled, clear-bottom 384-well plates (Corning Life Sciences, Durham, NC, USA) with discorhabdins or doxorubicin (Sigma, St. Louis, MO, USA) as a positive control for up to 24 h with JC-10 for the last 1 h of incubation. Red/green fluorescence signals were measured, the red/green ratio for each well was calculated and normalized to untreated (DMSO) control wells for the same cell line and incubation time to determine relative MMP.

MCC cell lines = experiment: Cell survival by CellTiterGlo, MCC cell lines together; format: cell-based; conditions: for averaged potency (IC50) across all MCC cell lines tested: average over MCC cell lines
Procedure: as §5, §6

[5] = tested on: VP-MCC cell lines (MKL-1, MKL-2, and Waga); experiment: Selectivity VP-MCC versus control cells (average AUC); format: cell-based
Text: as §6
Figure S41: Discorhabdi nselectivity
Discorhabdin selectivity for VP -MCC and VN- MCCcells was estimated by comparison of activity (average AUC) for each dis corhabdin against VP -MCC (panel A) or VN- MCC (panel B) cell lines compared to control cells . Discorhabdins were sort ed by selectivity from most to least selective. - fold dif fer ence = (av e VN -MCC or VP -MCC AUC/ control AUC). Error bars […]
(1 picture or pasted object on this page, not shown here)

caspase-3/7 [6] = experiment: Caspase-3/7 activation (CaspaseGlo 3/7) in UISO cells; format: cell-based; conditions: 8 or 24 h; normalized to DMSO control
Procedure: as §3, §4

MCC13 = experiment: Cell survival by CellTiterGlo, VN-MCC line MCC13; format: cell-based; conditions: for IC50: CellTiterGlo, normalized to DMSO; for AUC (arbitrary units) MCC13: area under the dose-response curve
MKL-1 cells = experiment: Mitochondrial membrane potential (JC-10) in MKL-1 cells; format: cell-based; conditions: 10 µM, normalized to DMSO control
Procedure: as §1, §7

[7] = prostate cancer xenograft model; cited from earlier work
caspase-3 = tested on: caspase-3; set-up: method as in PMID 9917313; conditions: cited from earlier work
MCC cells [8] = experiment: Cell death after pretreatment with pan-caspase inhibitor Z-VAD-FMK; format: cell-based; conditions: Z-VAD-FMK 40 µM, 1 h pretreatment; discorhabdins 10 µM, bortezomib 1 µM
Procedure: as §4

[9] = control skin cell line, CellTiterGlo, normalized to DMSO, read-out: IC50 (nM) HaCaT

Row | SMILES | IC50 (MCC26) [nM] | AUC (arbitrary units) MCC26 (MCC26) [arbitrary units] | cellular reducing potential (MCC cells [1]) | IC50 (MKL-1) [nM] | AUC (arbitrary units) MKL-1 (MKL-1) [arbitrary units] | caspase-3/7 activation, MKL-1 (caspase-3/7 [2]) | activity on cell viability, in words [3] | IC50 (HaCaT; [9]) [nM] | AUC (arbitrary units) HaCaT (HaCaT) [arbitrary units] | cellular ATP content (MCC cells [4]) | IC50 (Waga) [nM] | AUC (arbitrary units) WaGa (Waga) [arbitrary units] | IC50 (MKL-2) [nM] | AUC (arbitrary units) MKL-2 (MKL-2) [arbitrary units] | IC50 (UISO) [nM] | AUC (arbitrary units) UISO (UISO) [arbitrary units] | averaged potency (IC50) across all MCC cell lines tested (MCC cell lines) | caspase-3/7 activation, UISO (caspase-3/7 [6]) | IC50 (MCC13) [nM] | AUC (arbitrary units) MCC13 (MCC13) [arbitrary units] | also measured
1 | O=C1C=C2S[C@H]3C[C@]2(C=C1Br)C1=C(N3)C(=O)c2[nH]cc3c2C1=NCC3 [Compound 2, (+)-(6S,8S) discorhabdin B] | 731 | 83.94 | dropped significantly | 25 | 3.635 | lack of caspase-3/7 activation | comparable activity against MCC and control cell lines | 1040 | 133.9 | loss of cellular ATP content was dramatic and rapid | 75 | 9.624 | 90 | 14.49 | 331 | 39.51 | sub-micromolar | lack of caspase-3/7 activation | 426 | 51.68 | IC50 (HaCaT; read-out: IC50 for control cells): ≤ 1000 nM; mitochondrial membrane potential (MMP), UISO (UISO cells): significantly reduced; fold more active than discorhabdin Q (3) against MCC cells (MCC cell lines; comparator discorhabdin Q (3)): > 10 fold; fold more active against MCC cells compared to 3 (MCC cell lines; comparator printed as 3, sentence is about discorhabdin G*/I (4)): 3 fold; increased activity against VP-MCC compared to the control [5]: > 10 fold; mitochondrial membrane potential (MMP), MKL-1 (MKL-1 cells): significantly reduced
2 | O=C1C2=C3C4=[N+](CCc5c[nH]c1c54)[C@@H]1C(=O)C=C4S[C@@H](C[C@@]43[C@H]1O)N2 [Compound 12, (−)-(1R,2S,6R,8S) discorhabdin L] | 1130 | 140.6 | dropped significantly | 83 | 13.23 | lack of caspase-3/7 activation |  | 2550 | 290.4 | loss of cellular ATP content was dramatic and rapid | 440 | 55.36 | 245 | 50.71 | 660 | 103 | sub-micromolar | lack of caspase-3/7 activation | 466 | 93.66 | in vivo toxicity in animals [7]: minimal in vivo toxicity; mitochondrial membrane potential (MMP), UISO (UISO cells): significantly reduced; mitochondrial membrane potential (MMP), MKL-1 (MKL-1 cells): significantly reduced
3 | Cn1cc2c3c1C(=O)C1=C(C3=NCC2)C2(C=C(Br)C(=O)C(Br)=C2)CCN1 [Compound 17, discorhabdin P] | 1210 | 140.1 |  | 68 | 7.146 |  | more potent than discorhabdin C in all seven cell lines | 1260 | 150.9 |  | 106 | 14.11 | 87 | 17.05 | 292 | 50.65 | sub-micromolar |  | 499 | 64.76 | increased activity against VP-MCC compared to the control [5]: > 10 fold; caspase-3 inhibition (caspase-3): reported to inhibit caspase-3
4 | CC(C)C[C@H](NC(=O)[C@H](Cc1ccccc1)NC(=O)c1cnccn1)B(O)O [bortezomib, reference compound] |  |  |  |  |  | robustly activates caspase |  |  |  |  |  |  |  |  |  |  |  | robustly activates caspase |  |  | effect of Z-VAD-FMK pretreatment on induced MCC cell death (MCC cells [8]): reduced bortezomib-induced
